Values quoted from earlier work as cited in patent US7696365B2 (Chugai Seiyaku Kabushiki Kaisha, priority 2003, dated 2010).

Experiments:
[1] = tested on: human breast cancer cells
[2] = tested on: muscle (M) isoform of CPT-I; details: read-out: IC50 of malonyl-CoA inhibition, muscle isoform

Row | SMILES | malonyl-CoA level ([1]; breast carcinoma cells) | antitumor activity ([1]; human breast cancer cells and xenografts) | IC50 [2] [nM]
1 | CCCCCCCCCCCCCCOc1ccc(C(=O)O)o1 [TOFA, 5-(tetradecyloxy)-2-furoic acid] | 60 % of the control | does not show any antitumor activity | –
2 | CC(C)(COP(=O)(O)OP(=O)(O)OC[C@H]1O[C@@H](n2cnc3c(N)ncnc32)[C@H](O)[C@@H]1OP(=O)(O)O)[C@@H](O)C(=O)NCCC(=O)NCCSC(=O)CC(=O)O [malonyl-CoA, Malonyl-CoA] | – | – | 30
